2 substances from patent US20210302459A1, “Biosensor Storage Methods” (Queen's University at Kingston, priority 2020, published 2021) can be followed below.

What all share (format): binding
Experiment [1] addresses T1, TLR2/6 biosensor (TLR2 and TLR6 proteins immobilized on gold electrode) (Mus musculus, UniProt Q9EPW9+Q9QUN7).
T1 construct: Fc (fusion partner, Fc chimera); purchased R&D Systems Inc. 1530-TR-050 (TLR2); 1533-TR-050 (TLR6)
Kind of experiment: Electrochemical impedance response (ΔRct %) of freshly prepared TLR2/6 biosensors to isolated PAMPs. As to the method:
As shown in FIGS. 1A-B, a TLR2/6 biosensor was prepared following the steps as shown. Specifically, TLR biosensors were prepared using DropSens gold screen printed electrode (SPE). 1-lipoic acid n-hydroxysuccinimide ester (LPA, a linker molecule) was synthesized following a published protocol (see Howarth, M., et al., Nat. Methods, 2008, 5, 397-399). LPA solution at a concentration of 2 mM was prepared using ethanol/MQ water (volume ratio of 1:1). A clean plastic petri dish was lined with a filter paper which was dampened with a 1:1 solution of ethanol and MQ. The DropSens SPE was placed on the filter paper and 50 μL of the 2 mM LPA solution was dropped onto the working electrode. The petri dish was sealed with parafilm and placed in a fridge at 277 K for 24 hours. An additional 50 μL of the 2 mM LPA solution was cast onto a working electrode and returned to the fridge for another 24 hours. After a total of 48 hours the SPE was rinsed thoroughly with ethanol and MQ water before blown dry with nitrogen. TLR2 and TLR6 proteins were individually reconstituted into solutions at a concentration of 200 μg/mL using PBS buffer (pH ˜7.4). The TLR2/6 protein mixture was prepared by mixing 100 μL of TLR2 and 100 μL of TLR6 and mixing on a vortex machine for 30 seconds in a 1.5 mL microcentrifuge tube. The SPEs were placed in petri dishes with filter papers dampened with PBS buffer (pH ˜7.4). A small drop of TLR 2/6 mixture (5 μL) was dispensed onto each working electrode and then the petri dishes were sealed with PARAFILM™ and left in the fridge at 277 K for 72 hours. The electrodes were rinsed with MQ water after the immersion and blown dry with nitrogen. An ethanolamine-tris buffer solution was prepared by dissolving 1.2 g of ethanolamine, 0.121 g tris base in 20 mL of MQ water. The pH of the solution was adjusted to 8.4 using concentrated hydrochloric acid. After the step of immobilizing TLR2/6 proteins, electrode surfaces were immersed in ethanolamine solutions for 1 hour to deactivate unreacted ester groups on the LPA monolayer.
All electrochemical measurements were preformed in faraday cages using DRP-CAC adapters for SPEs being measured. Cyclic voltammetry (CV), square wave voltammetry (SWV), and electrochemical impedance spectroscopy (EIS) measurements were completed using CHI6055E potentiostats (CH Instruments of Austin, Tex., USA). […] The experimental EIS curves were evaluated to determine the film resistance using ZSimpWin 2.0 software (available from AMETEK® Scientific Instruments of Berwyn, Pa., USA). […]
(§1) Sensor responses to different concentrations of Pam2CSK4, a gram-positive PAMP, were evaluated. […] Reduction in measured current correlated to the binding of Pam2CSK4 onto the TLR2/6 biosensor. […]

For experiment [2], the target named is T1, TLR2/6 biosensor (TLR2 and TLR6 proteins immobilized on gold electrode). Kind of experiment: Response of TLR2/6 biosensors to Pam2CSK4 after 2 weeks storage under different conditions. Conditions: for detection response / activity in comparison to control: 50 μM Pam2CSK4; for activity in comparison to control: −33° C. As to the method:
Referring to FIGS. 2A-C, plots are shown that provide detection responses obtained from TLR2/6 biosensors in the presence of Pam2CSK4 with no storage, and with storage under different conditions for 2 weeks (see Example 5 for details). Columns labelled ‘A’ in FIGS. 2A-C correspond to detection responses of fresh (i.e., not stored) TLR2/6 biosensors to different concentrations of Pam2CSK4. Responses of TLR2/TLR6 biosensors stored in PBS buffer at −80° C. (see columns labelled ‘E’ in FIGS. 2A-2C) for two weeks to Pam2CSK4 were equivalent to the responses from freshly prepared biosensors. That is, there was no significant loss of performance under storage condition E (see Table 1).
Biosensors as described herein (e.g., TLR2/6 proteins immobilized onto conductive surfaces) were stored under varying conditions (see Table 1) for two weeks and then challenged by the PAMP (Pam2CSK4). As shown in FIGS. 2A-2C, a comparison was done of the responses from freshly prepared and stored biosensors were compared. Calibration curves including more concentration points are shown in FIGS. 6A-6D, where ΔRCT(%) is a normalized detection signal. ΔRCT(%)=[RCT (after exp.)−RCT (before exp.)]/RCT (before exp.), where “before exp.” refers to before exposure to analyte, and “after exp.” refers to after exposure to the analyte.
Three storage temperatures were selected, 4° C., −33° C., and −80° C. Ionic salt solutions are commonly used to maintain protein folding and stability, thus, to preserve the biosensor during storage, varying buffer solutions were used.
Batch B biosensors were stored in PBS buffer of pH˜7.4 at 4° C.
The storage conditions for Batch C was −33° C. in 50% v/v PBS buffer at pH ˜7.4 and glycerol. The storage conditions for Batch D was −33° C. in 50% v/v Tris buffer pH ˜7.7 and glycerol. […] However, the activity was reduced down to 30% in comparison to control.
The storage conditions for Batch E was −80° C. in PBS buffer at pH ˜7.4.
Batch F biosensors were stored at −80° C. in the absence of any buffer solution.
Batch G biosensors were disposed in a buffer solution that included amino acids. Specifically, Batch G buffer solution included 50 mM L-Arg, 50 mM L-Glu, 1 M NaCl and 200 mM imidazole in 50 mM Tris-HCl (pH˜8.0). The solution surrounded each biosensor in Batch G and they were kept at 4° C.
Different concentrations of Pam2CSK4 were used to trigger the responses. These concentrations were 0.1 μM for FIG. 2A; 1.0 μM for FIG. 2B; and 50 μM for FIG. 2C.

Experiment [3] shares this target. Kind of experiment: Cyclic voltammetry peak current of TLR2/6 biosensors after exposure to analyte. Conditions: concentration increased 0.1 to 50.0 μM; reduced from 147 μA. Here is the method:
As shown in FIGS. 1A-B, a TLR2/6 biosensor was prepared following the steps as shown. Specifically, TLR biosensors were prepared using DropSens gold screen printed electrode (SPE). 1-lipoic acid n-hydroxysuccinimide ester (LPA, a linker molecule) was synthesized following a published protocol (see Howarth, M., et al., Nat. Methods, 2008, 5, 397-399). LPA solution at a concentration of 2 mM was prepared using ethanol/MQ water (volume ratio of 1:1). A clean plastic petri dish was lined with a filter paper which was dampened with a 1:1 solution of ethanol and MQ. The DropSens SPE was placed on the filter paper and 50 μL of the 2 mM LPA solution was dropped onto the working electrode. The petri dish was sealed with parafilm and placed in a fridge at 277 K for 24 hours. An additional 50 μL of the 2 mM LPA solution was cast onto a working electrode and returned to the fridge for another 24 hours. […]
All electrochemical measurements were preformed in faraday cages using DRP-CAC adapters for SPEs being measured. […] The experimental EIS curves were evaluated to determine the film resistance using ZSimpWin 2.0 software (available from AMETEK® Scientific Instruments of Berwyn, Pa., USA). […]
as §1

T1 sequence (Q9QUN7 with tags, fused parts or gaps limits assumed): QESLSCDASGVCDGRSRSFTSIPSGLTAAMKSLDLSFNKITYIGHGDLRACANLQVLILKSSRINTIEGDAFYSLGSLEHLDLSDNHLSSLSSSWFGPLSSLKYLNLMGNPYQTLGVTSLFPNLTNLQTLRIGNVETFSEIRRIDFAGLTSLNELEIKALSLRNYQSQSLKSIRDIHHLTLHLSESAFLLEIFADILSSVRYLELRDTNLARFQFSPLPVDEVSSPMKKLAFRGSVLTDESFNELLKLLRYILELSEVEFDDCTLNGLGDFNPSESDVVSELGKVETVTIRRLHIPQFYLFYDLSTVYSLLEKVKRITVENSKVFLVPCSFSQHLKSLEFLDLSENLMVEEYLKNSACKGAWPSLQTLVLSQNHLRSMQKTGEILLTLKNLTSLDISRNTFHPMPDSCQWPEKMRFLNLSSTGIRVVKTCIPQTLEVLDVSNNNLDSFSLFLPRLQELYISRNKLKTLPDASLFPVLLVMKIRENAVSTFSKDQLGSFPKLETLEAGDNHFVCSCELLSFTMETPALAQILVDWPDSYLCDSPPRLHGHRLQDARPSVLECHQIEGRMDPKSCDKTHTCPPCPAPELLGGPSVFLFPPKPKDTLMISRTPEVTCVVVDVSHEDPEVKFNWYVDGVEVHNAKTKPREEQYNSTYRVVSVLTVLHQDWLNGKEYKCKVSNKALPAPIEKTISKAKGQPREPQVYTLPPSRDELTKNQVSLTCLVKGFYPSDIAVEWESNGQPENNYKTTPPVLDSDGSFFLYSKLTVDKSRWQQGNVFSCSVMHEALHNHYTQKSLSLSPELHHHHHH
T1 sequence (Q9EPW9 with tags, fused parts or gaps limits assumed): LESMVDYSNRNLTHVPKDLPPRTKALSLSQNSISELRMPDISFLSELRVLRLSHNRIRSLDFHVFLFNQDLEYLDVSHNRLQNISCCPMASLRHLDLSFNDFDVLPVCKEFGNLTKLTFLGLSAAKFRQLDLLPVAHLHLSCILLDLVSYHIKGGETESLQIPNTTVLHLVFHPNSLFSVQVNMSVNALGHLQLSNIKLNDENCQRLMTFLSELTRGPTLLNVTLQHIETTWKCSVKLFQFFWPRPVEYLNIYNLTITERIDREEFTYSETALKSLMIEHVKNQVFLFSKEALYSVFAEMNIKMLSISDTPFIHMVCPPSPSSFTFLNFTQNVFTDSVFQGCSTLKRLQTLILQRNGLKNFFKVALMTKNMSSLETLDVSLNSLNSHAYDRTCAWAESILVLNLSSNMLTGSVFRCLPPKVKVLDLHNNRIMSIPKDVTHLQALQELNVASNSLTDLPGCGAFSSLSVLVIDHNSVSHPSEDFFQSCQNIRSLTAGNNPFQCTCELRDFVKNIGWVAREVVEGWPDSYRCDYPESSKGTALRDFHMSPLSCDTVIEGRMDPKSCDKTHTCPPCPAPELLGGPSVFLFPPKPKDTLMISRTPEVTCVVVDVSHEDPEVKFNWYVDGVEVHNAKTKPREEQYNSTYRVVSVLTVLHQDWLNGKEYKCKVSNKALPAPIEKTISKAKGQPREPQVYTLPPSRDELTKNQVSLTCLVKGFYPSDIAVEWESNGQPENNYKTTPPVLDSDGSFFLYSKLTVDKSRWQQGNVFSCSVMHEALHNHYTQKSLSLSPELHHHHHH

Consider lipopolysaccharide [Salmonella LPS], for which the “electrochemical response (ΔRct %)” value in experiment [1] (LPS from 0.1 to 63.6 μg/ml, any concentration) is given as not above 40%.
For the substance Pam2CSK4, the “electrochemical response (ΔRct %)” value was 24±12% in experiment [1] (0.1 μM analyte, fresh biosensors, 4 replicates); 58±13% in experiment [1] (1 μM analyte, fresh biosensors, 4 replicates); approximately 160% in experiment [1] (largest concentration, FIG. 4 comparison). Further, the detection response amounted to 167±29% in experiment [2] (freshly prepared biosensors (column A, no storage)) and 360±24% in experiment [2] (storage condition G: 2 weeks, 4° C., amino acid buffer pH ~8.0). The response after storage result in experiment [2] (Batch B: 2 weeks, PBS buffer pH ~7.4, 4° C.) is given as “no significant responses”; in experiment [2] (Batch F: 2 weeks, −80° C., no buffer solution) it was “lost most of their response”. Moreover, the “activity in comparison to control” value is recorded as 30% in experiment [2] (Batch C: 2 weeks, 50% v/v PBS/glycerol) and 30% in experiment [2] (Batch D: 2 weeks, 50% v/v Tris/glycerol). In experiment [2] (Batch E: 2 weeks, −80° C., PBS buffer pH ~7.4, all concentrations), the “response after storage versus control biosensor” value was “within error of the control biosensor”. Besides, the “peak current (cyclic voltammogram) after exposure” value in experiment [3] was found to be 96 μA.
